Like-named read-outs stand apart in the source and are kept apart here.

For orientation: LD50 means the dose at which mortality reaches 50%. The ED50 is the dose that gives a 50% effect, or the effect in half of the subjects.

Data set [1] deals with hypertensive rats (SHR). Nature of the data set: Antihypertensive activity in male hypertensive rats (SHR), systolic blood pressure by indirect tail-cuff method. Format: in vivo, rat (SHR, Wister-Kyoto strain). Conditions: 0.5% methylcellulose, systolic blood pressure measured 1, 3, 5 and 7 hours after administration; for ED25 SHR os (antihypertensive activity): oral; for ED25: Rattus norvegicus, po, read-out: ED25 SHR os (antihypertensive activity). The procedure:
The antihypertensive activity of the diesters according to the invention was evaluated in male hypertensive rats (SHR, Wister-Kyoto strain, 15-25 weeks old). The determination of blood pressure was performed by an indirect method [M. Gerald et al., Arzneim. Forsch., 18, 1825 (1968)]. The animals were prewarmed in a heating chamber at a temperature of from 35° C. to 37° C. for a period of 15 minutes before pressure determination. The compounds tested by oral route were dissolved or suspended in a 0.5% methylcellulose solution. Controls were given only the vehicle. Systolic blood pressure and heart rate were measured 1, 3, 5 and 7 hours after drug administration by means of a tail-cuff and a pulse transducer.

The test system of data set [2] is mouse. Nature of the data set: LD50 determined in the mouse, i.p. and per os (Weil method). Format: in vivo. The following applies: for LD50 os: per os. On the procedure:
(§1) The LD50 of the compounds according to the invention was determined in the mouse, both i.p. and per os, according to the method described by C. S. Weil [Biometrics, 8, 249 (1952)].

Assay in data set [3]: as above
Conditions: in vivo. Format: in vivo. On the procedure: as §1

Data set [4] has as its system methacholine induced coronary spasm. Nature of the data set: Coronary dilating activity: antagonism of methacholine induced coronary spasm in anesthetized normotensive rats. Format: in vivo. The following applies: Rattus norvegicus, iv, i.v. infusion in water:dimethylformamide 9:1, normalization of ECG during methacholine infusion. On the procedure: Coronary dilating activity was evaluated in anesthetized normotensive rats (weighing about 500 g), as the ability to antagonize methacholine induced coronary spasm. Rats were instrumented for methacholine infusion into the coronary ostium, while spastic activity was detected as ST segment elevation in D2 ECG recording [K. Sakai et al., J. Pharm. Meth., 5, 325 (1981)].
The compounds tested by i.v. infusion were dissolved in water: dimethylformamide (9:1 by volume). Activity was detected as normalization of ECG tracing after compounds administration during methacholine infusion.

On to `CC1=C(C(=O)OCCN(C)CCC(c2ccccc2)c2ccccc2)C(c2cccc([N+](=O)[O-])c2)C(C(=O)OCC(C)C)=C(C)N1` (stereo not drawn) [compound 2329, isobutyl N-(3,3-diphenylpropyl)-N-methyl-2-aminoethyl 1,4-dihydro-2,6-dimethyl-4-(3-nitrophenyl)-pyridine-3,5-dicarboxylate], for which the “ED25 SHR os (antihypertensive activity)” value in data set [1] stood at 3.4 mg/kg. In data set [2], this molecule gave an LD50 i.p. of 63 mg/kg and an LD50 os of 401 mg/kg.
Turning to `CC1=C(C(=O)OCCN(C)CCC(c2ccccc2)c2ccccc2)C(c2cccc([N+](=O)[O-])c2)C(C(=O)OC(C)C)=C(C)N1` (stereo not drawn) [compound 2350, isopropyl N-(3,3-diphenylpropyl)-N-methyl-2-aminoethyl 1,4-dihydro-2,6-dimethyl-4-(3-nitrophenyl)-pyridine-3,5-dicarboxylate], in data set [1], the ED25 worked out at 3 mg/kg. Further, the median lethal dose (LD50) stood at 50 mg/kg in data set [3] (ip, read-out: LD50 i.p.) and 116 mg/kg in data set [3] (po, per os, read-out: LD50 os).
In data set [4], `COC(=O)C1=C(C)NC(C)=C(C(=O)OC(C)CN(C)CCC(c2ccccc2)c2ccccc2)C1c1cccc([N+](=O)[O-])c1` (stereo not drawn) [compound 2288, methyl 1, N-dimethyl-N-(3,3-diphenylpropyl)-2-aminoethyl 1,4-dihydro-2,6-dimethyl-4-(3-nitrophenyl)-pyridine-3,5-dicarboxylate] came in with an ED50 of 0.046 mg/kg. In addition, in data set [1], the ED25 was determined as 1.5 mg/kg. In addition, the median lethal dose (LD50) in data set [3] (ip, read-out: LD50 i.p.) came out at 72 mg/kg; in data set [3] (po, per os, read-out: LD50 os) it was 197 mg/kg.
In the case of `COC(=O)C1=C(C)NC(C)=C(C(=O)OCCCCN(C)CCC(c2ccccc2)c2ccccc2)C1c1cccc([N+](=O)[O-])c1` (stereo not drawn) [compound 2361, methyl N-(3,3-diphenylpropyl)-N-methyl-4-aminobutyl 1,4-dihydro-2,6-dimethyl-4-(3-nitrophenyl)-pyridine-3,5-dicarboxylate], in data set [1], the ED25 is 7.2 mg/kg. Also, the LD50 in data set [3] (ip, read-out: LD50 i.p.) is 99 mg/kg; in data set [3] (po, per os, read-out: LD50 os), 493 mg/kg.
Take `COC(=O)C1=C(C)NC(C)=C(C(=O)OCCNCCC(c2ccccc2)c2ccccc2)C1c1cccc([N+](=O)[O-])c1` (stereo not drawn) [compound 2279, methyl N-(3,3-diphenylpropyl)-2-amino-ethyl 1,4-dihydro-2,6-dimethyl-4-(3-nitrophenyl)-pyridine-3,5-dicarboxylate]: in data set [4], the 50% effect level (ED50) was put at a dose of 0.297 mg/kg. In data set [1], the ED25 came to 7.3 mg/kg. In addition, the median lethal dose (LD50) in data set [3] (ip, read-out: LD50 i.p.) is 121 mg/kg; in data set [3] (po, per os, read-out: LD50 os), 279 mg/kg.
For `CC1=C(C(=O)OCCN(C)CCC(c2ccccc2)c2ccccc2)C(c2cccc([N+](=O)[O-])c2)C(C(=O)OCC(C)C)=C(C)N1` (stereo not drawn) [compound 2352, isobutyl N-(3,3-diphenylpropyl)-N-methyl-2-aminoethyl 1,4-dihydro-2,6-dimethyl-4-(3-nitrophenyl)-pyridine-3,5-dicarboxylate], the “ED25 SHR os (antihypertensive activity)” value in data set [1] is listed as 6.9 mg/kg. Also, in data set [2], the LD50 i.p. is reported as 222 mg/kg and the LD50 os came out at 2195 mg/kg.
Consider `CC1=C(C(=O)OCC(C)C)C(c2cccc(Cl)c2Cl)C(C(=O)OC(C)CN(C)CCC(c2ccccc2)c2ccccc2)=C(C)N1` (stereo not drawn) [compound 2383, isobutyl 1,N-dimethyl-N-(3,3-diphenylpropyl)-2-aminoethyl 1,4-dihydro-2,6-dimethyl-4-(2,3-dichlorophenyl)-pyridine-3,5-dicarboxylate], for which the ED25 in data set [1] is 3.4 mg/kg. Also, the LD50 in data set [3] (po, per os, read-out: LD50 os) is 500 mg/kg.
In data set [4], `COC(=O)C1=C(C)NC(C)=C(C(=O)OCCCN(C)CCC(c2ccccc2)c2ccccc2)C1c1cccc([N+](=O)[O-])c1` (stereo not drawn) [compound 2263, methyl N-(3,3-diphenylpropyl)-N-methyl-3-aminopropyl 1,4-dihydro-2,6-dimethyl-4-(3-nitrophenyl)-pyridine-3,5-dicarboxylate] yielded an ED50 of 0.197 mg/kg. Moreover, the ED25 in data set [1] amounted to 3.4 mg/kg. Moreover, the LD50 in data set [3] (ip, read-out: LD50 i.p.) amounted to 171 mg/kg; in data set [3] (po, per os, read-out: LD50 os) it was 254 mg/kg.
On the same counts, the results for `COC(=O)C1=C(C)NC(C)=C(C(=O)OC(C)(C)CN(C)CCC(c2ccccc2)c2ccccc2)C1c1cccc([N+](=O)[O-])c1` (stereo not drawn) [compound 2375, methyl 1,1,N-trimethyl-N-(3,3-diphenylpropyl)-2-aminoethyl 1,4-dihydro-2,6-dimethyl-4-(3-nitrophenyl)-pyridine-3,5-dicarboxylate] are 0.082 mg/kg, 2.6 mg/kg, 83 mg/kg and 657 mg/kg.

(Values after patent US4705797A, “N-(3,3-diphenylpropyl) aminoethyl esters of 1,4-dihydro-2,6-dimethyl-pyridine-3,5-dicarboxylic acid, compositions and use” (Recordati S.A., Chemical and Pharmaceutical Company, priority 1984, dated 1987).)
